Measurements published in patent publication US7205403B2, “8-Heteroaryl xanthine adenosine A2B receptor antagonists” (King Pharmaceuticals Research and Development, Inc., priority 2002, dated 2007).

What was measured:
[1] = target: T1, human A2A adenosine receptor (Homo sapiens, UniProt P29274); assay: [3H]ZM241385 binding to human A2A receptors expressed in CHO cells; conditions: read-out: Ki, [3H]ZM241385 binding to human A2A receptors expressed in CHO cells
T1 construct: expressed in transfected cells; host or cells: CHO cells (membranes)
Experimental: (§1) The cells were grown adherently and maintained in Dulbecco's modified Eagle's medium with nutrient mixture F12 without nucleosides at 37° C. in 5% CO2/95% air. The cells were washed with phosphate-buffered saline and scraped off flasks in ice cold hypotonic buffer ([…] Tris HCl, 2 mM EDTA, pH 7.4). The cell suspension was homogenized with a Polytron and the homogenate was centrifuged for 30 minutes at 48,000 g. The resultant membrane pellet was re-suspended in 50 mM Tris HCl buffer at pH 7.4 for A1 adenosine receptors; in 50 mM Tris HCl 10 mM MgCl, at pH 7.4 for A2A adenosine receptors; in 50 mM Tris HCl, 10 mM MgCl2, 1 mM EDTA, at pH 7.4 for A3 adenosine receptors and were utilized for binding assays.
(§2) The filter bound radioactivity was counted on Top Count (efficiency 57%) with Micro-Scint 20.
(§3) The filter bound radioactivity was counted on a Top Count brand Microplate Scintillation Counter (efficiency 57%) with Micro-Scint 20. […] Inhibitory binding constant. […] Results and Discussion

[2] = target: T2, human A3 adenosine receptor (Homo sapiens, UniProt P0DMS8); assay: [3H]MRE3008F20 binding to human A3 receptors expressed in CHO cells
T2 construct: expressed in transfected cells; host or cells: CHO cells (membranes)
T2 sequence (P0DMS8 1-318): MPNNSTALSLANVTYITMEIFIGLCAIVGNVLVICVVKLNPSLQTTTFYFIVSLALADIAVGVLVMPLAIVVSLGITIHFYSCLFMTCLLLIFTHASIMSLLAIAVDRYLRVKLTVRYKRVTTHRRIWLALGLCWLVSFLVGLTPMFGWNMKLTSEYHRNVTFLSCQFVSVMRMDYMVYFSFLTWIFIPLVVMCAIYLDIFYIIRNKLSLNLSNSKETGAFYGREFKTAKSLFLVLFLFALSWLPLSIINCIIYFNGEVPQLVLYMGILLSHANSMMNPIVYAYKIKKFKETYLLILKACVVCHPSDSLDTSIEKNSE
Experimental: as §1
Binding of [^3H]-MRE3008-F20 to CHO cells transfected with the human recombinant A3 adenosine receptors was performed according to Varani et al., 2000. Competition experiments were carried out in duplicate in a final volume of 250 μl in test tubes containing 1 nM [^3H]-MRE3008-F20, 50 mM Tris HCl buffer, […] MgCl2, pH 7.4 and 100 μl of diluted membranes (50 μg of protein/assay) and at least 6–8 different concentrations of examined ligands for 120 minutes at 4° C.
as §2, §3

[3] = target: T3, human A2B adenosine receptor (Homo sapiens, UniProt P29275); assay: [3H]DPCPX binding to human A2B receptors expressed in HEK293 cells; parameters: host or cells: HEK 293 cells (membranes); conditions: geometric mean (95% confidence interval); >1000 = no appreciable binding; read-out: Ki, [3H]DPCPX binding to human A2B receptors expressed in HEK293 cells
T3 sequence (P29275 1-332): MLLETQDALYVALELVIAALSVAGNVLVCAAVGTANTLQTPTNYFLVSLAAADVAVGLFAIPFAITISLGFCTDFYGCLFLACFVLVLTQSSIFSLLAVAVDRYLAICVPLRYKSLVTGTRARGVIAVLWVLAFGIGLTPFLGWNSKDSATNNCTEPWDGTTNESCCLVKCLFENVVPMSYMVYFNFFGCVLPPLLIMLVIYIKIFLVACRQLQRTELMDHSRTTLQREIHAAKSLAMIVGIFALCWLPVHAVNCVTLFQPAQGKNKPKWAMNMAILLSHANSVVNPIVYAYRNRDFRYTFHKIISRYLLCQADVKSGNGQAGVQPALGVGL
Experimental: HEK 293 cells transfected with the human recombinant A2B adenosine receptor were obtained from Receptor Biology, Inc. (Beltsville, Md. USA).
Binding of 1 [^3H]-DPCPX to HEK 293 cells transfected with the human recombinant A2B adenosine receptors was performed according to the method described by Varani et al., 2000. In particular, assays were carried out for 60 minutes at 25° C. in 100 μl of […] Tris HCl buffer, […] MgCl2, 1 mM EDTA, 0.1 mM benzamidine pH 7.4, 2 IU/ml adenosine deaminase containing 40 nM [^3H]-DPCPX, diluted membranes (20 μg of protein/assay) and at least 6–8 different concentration of tested compounds.
as §2, §3

T1 sequence (P29274 whole entry): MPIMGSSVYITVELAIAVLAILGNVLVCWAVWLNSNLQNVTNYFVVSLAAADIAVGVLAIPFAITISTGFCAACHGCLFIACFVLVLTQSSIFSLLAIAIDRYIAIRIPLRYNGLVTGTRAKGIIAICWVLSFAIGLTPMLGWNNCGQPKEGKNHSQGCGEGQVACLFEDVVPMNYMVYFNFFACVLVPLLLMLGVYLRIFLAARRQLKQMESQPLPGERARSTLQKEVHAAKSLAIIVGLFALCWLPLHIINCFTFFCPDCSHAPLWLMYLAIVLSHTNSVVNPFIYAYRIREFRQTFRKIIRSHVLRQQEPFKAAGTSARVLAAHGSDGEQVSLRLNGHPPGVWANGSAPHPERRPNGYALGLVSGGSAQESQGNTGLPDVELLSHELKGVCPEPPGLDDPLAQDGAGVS

Row | Compound | Ki [1] [nM] | Ki [2] [nM] | Ki [3] [nM]
1 | CCCn1c(=O)c2[nH]c(-c3cc(C(=O)O)n(C)n3)nc2n(CCC)c1=O [AS1, 1,3-di-n-propyl-8-(1-methyl-5-carboxy-1-H-pyrazol-3-yl)-xanthine] | > 1000 | > 1000 | > 1000
2 | CCCn1c(=O)c2[nH]c(-c3cc(NC(=O)CCC(=O)O)nn3C)nc2n(CCC)c1=O [AS8, 4-{[5-(1,3-dipropyl-2,6-dioxo-2,3,6,7-tetrahydro-1H-purin-8-yl)-1-methyl-1H-pyrazol-3-yl]amino}-4-oxobutanoic acid] | > 1000 | > 1000 | > 1000
3 | CCCn1c(=O)c2[nH]c(-c3cc(NC(=O)Cc4ccc(CC(C)C)cc4)nn3C)nc2n(CCC)c1=O [AS14, N-[5-(2,6-dioxo-1,3-dipropyl-2,3,6,9-tetrahydro-1H-purin-8-yl)-1-methyl-1H-pyrazol-3-yl]-2-(4-isobutylphenyl)acetamide] | > 1000 | > 1000 | > 1000
4 | CCCn1c(=O)c2[nH]c(-c3cc(NC(=O)[C@@H](C)c4ccccc4)nn3C)nc2n(CCC)c1=O [AS18, (2S)-N-[5-(2,6-dioxo-1,3-dipropyl-2,3,6,7-tetrahydro-1H-purin-8-yl)-1-methyl-1H-pyrazol-3-yl]-2-phenylpropanamide] | > 1000 | > 1000 | > 1000
5 | CCCn1c(=O)c2[nH]c(-c3cc(NC(=O)[C@H](C)c4ccccc4)nn3C)nc2n(CCC)c1=O [AS19, (2R)-N-[5-(2,6-dioxo-1,3-dipropyl-2,3,6,7-tetrahydro-1H-purin-8-yl)-1-methyl-1H-pyrazol-3-yl]-2-phenylpropanamide] | > 1000 | > 1000 | > 1000
6 | Cn1nc(NC(=O)Cc2ccccc2)cc1-c1nc2c([nH]1)c(=O)n(C)c(=O)n2C [AS40, N-[5-(2,6-dioxo-1,3-dimethyl-2,3,6,9-tetrahydro-1H-purin-8-yl)-1-methyl-1H-pyrazol-3-yl]-2-phenylacetamide] | > 1000 | > 1000 | 569
7 | CCCn1c(=O)c2[nH]c(-c3cc(OCC(=O)N4CCN(c5ccc(F)cc5)CC4)nn3C)nc2n(CCC)c1=O [AS72, 8-(5-{2-[4-(4-Fluoro-phenyl)-piperazin-1-yl]-2-oxo-ethoxy}-2-methyl-2H-pyrazol-3-yl)-1,3-dipropyl-3,7-dihydro-purine-2,6-dione] | > 1000 | > 1000 | 55
8 | CCCn1c(=O)c2[nH]c(-c3cc(OCC(=O)N4CCN(C)CC4)nn3C)nc2n(CCC)c1=O [AS87, 1,3-di-n-propyl-8-{5-[2-Oxo-2-(4-methyl-piperazin-1-yl)-ethoxy]-2-methyl-2H-pyrazole-3-yl}-xanthine] | > 1000 | > 1000 | 122
9 | C=CCn1c(=O)c2[nH]c(-c3cc(OCC(=O)N4CCN(c5ccccc5)CC4)nn3C)nc2n(CC=C)c1=O [AS96, 1,3-di-allyl-8-{5-[2-oxo-2-(4-phenyl-piperazin-1-yl)-ethoxy]-2-methyl-2H-pyrazole-3-yl}-xanthine] | > 1000 | > 1000 | 24

Results, then the compound that gave them:

Row | Ki [1] [nM] | Ki [2] [nM] | Ki [3] [nM] | Compound
10 | > 1000 | > 1000 | 1630 | CCCn1c(=O)c2[nH]c(-c3cc(NC(=O)Cc4ccc(N(C)C)cc4)nn3C)nc2n(CCC)c1=O [AS26, N-[5-(2,6-dioxo-1,3-dipropyl-2,3,6,9-tetrahydro-1H-purin-8-yl)-1-methyl-1H-pyrazol-3-yl]-2-[4-(N,N-dimethylamino)phenyl]acetamide]
11 | 1760 | > 1000 | 342 | CCCn1c(=O)c2[nH]c(-c3cc(NC(=O)Cc4ccc(O)c(OC)c4)nn3C)nc2n(CCC)c1=O [AS58, N-[5-(2,6-dioxo-1,3-dipropyl-2,3,6,9-tetrahydro-1H-purin-8-yl)-1-methyl-1H-pyrazol-3-yl]-2-(4-hydroxy-3-methoxyphenyl)acetamide]
12 | > 1000 | > 1000 | 70 | CCCn1c(=O)c2[nH]c(-c3cc(OCC(=O)Nc4ccc(F)cc4)no3)nc2n(CCC)c1=O [AS73, 1,3-di-n-propyl-8-{3-[(4-fluoro-phenylcarbamoyl)-methoxy]-isoxazol-5-yl}-xanthine]
13 | > 1000 | > 1000 | 53 | CCCn1c(=O)c2[nH]c(-c3cc(OCC(=O)Nc4ccc(OC)cc4)no3)nc2n(CCC)c1=O [AS75, 1,3-di-n-propyl-8-{3-[(4-methoxy-phenylcarbamoyl)-methoxy]-isoxazol-5-yl}-xanthine]
14 | > 1000 | > 1000 | 51 | CCCn1c(=O)c2[nH]c(-c3cc(OCC(=O)Nc4ccc(OC)c(OC)c4)no3)nc2n(CCC)c1=O [AS76, 1,3-di-n-propyl-8-{3-[(3,4-dimethoxy-phenylcarbamoyl)-methoxy]-isoxazol-5-yl}-xanthine]
15 | > 1000 | > 1000 | 108 | CCCn1c(=O)c2[nH]c(-c3ccc(OCC(=O)Nc4ccc(I)cc4)nc3)nc2n(CCC)c1=O [AS81, 1,3-di-n-propyl-8-{6-[(4-iodo-phenylcarbamoyl)-methoxy]-pyridin-3-yl}-xanthine]
16 | > 1000 | > 1000 | > 1000 | CCCn1c(=O)c2[nH]c(-c3ccc(OCC(=O)Nc4ccc(I)cc4)nn3)nc2n(CCC)c1=O [AS85, 1,3-di-n-propyl-8-{6-[(4-iodo-phenylcarbamoyl)-methoxy]-pyridazin-3-yl}-xanthine]
17 | > 1000 | > 1000 | 86 | CCCn1c(=O)c2[nH]c(-c3cc(OCC(=O)Nc4ccc(N5CCOCC5)cc4)nn3C)nc2n(CCC)c1=O [AS93, 1,3-di-n-propyl-8-{5-[(4-(morpholine-4-yl)-phenylcarbamoyl)-methoxy]-2-methyl-2H-pyrazole-3-yl}-xanthine]
18 | > 1000 | > 1000 | 32 | CCCn1c(=O)c2[nH]c(-c3cc(OCC(=O)Nc4ccc(C(=O)OCC)cc4)nn3C)nc2n(CCC)c1=O [AS94, 1,3-di-n-propyl-8-{5-[(4-(ethoxycarbonyl)-phenylcarbamoyl)-methoxy]-2-methyl-2H-pyrazole-3-yl}-xanthine]
19 | > 1000 | > 1000 | 36 | CCCn1c(=O)c2[nH]c(-c3cc(OCC(=O)Nc4ccc(C(=O)O)cc4)nn3C)nc2n(CCC)c1=O [AS95, 1,3-di-n-propyl-8-{5-[(4-carboxy-phenylcarbamoyl)-methoxy]-2-methyl-2H-pyrazole-3-yl}-xanthine]
20 | > 1000 | > 1000 | 12 | CCCn1c(=O)c2[nH]c(-c3cc(OCC(=O)Nc4ccc(OC)c(OC)c4)nn3C)nc2n(CCC)c1=O [AS101, 1,3-di-n-propyl-8-{5-[(3,4-dimethoxy-phenylcarbamoyl)-methoxy]-2-methyl-2H-pyrazole-3-yl}-xanthine]
